Literature values as cited in patent US20130040915A1, “PHARMACEUTICAL COMPOSITION” (CAPITAL, BUSINESS Y GESTION DE FINANZAS, S.L., priority 2010, published 2013).

Experiments:
[1] = system: tumor-induced hypercalcaemia; details: subcutaneous infusion
[2] = high concentrations, of the order of 4.8 mg/ml
[3] = not given; remark: listed apart in the source
[4] = system: adipose tissue cell membranes; details: concentrations of 1%

Compound: O=P(O)(O)C(Cl)(Cl)P(=O)(O)O [clodronate]
- tolerability ([1]; 1500 mg in 50 to 1000 ml, 2 to 24 hours): well tolerated
- control of tumor-induced hypercalcaemia (lowering the level of calcium) ([1]; 149 patients, 254 infusions): effective

Compound: O=P(O)(O)C(O)(Cn1ccnc1)P(=O)(O)O [Zoledronic acid]
- chemical stability in autoclave sterilization condition: chemically very stable

Compound: O=C([O-])CC(O)(CC(=O)[O-])C(=O)[O-].[Na+].[Na+].[Na+] [sodium citrate]
- pain after a subcutaneous injection compared with a solution with histidine [2]: more pain

Compound: C[C@H](CCC(=O)NCCS(=O)(=O)O)[C@H]1CC[C@H]2[C@@H]3[C@H](O)C[C@@H]4C[C@H](O)CC[C@]4(C)[C@H]3C[C@H](O)[C@]12C [sodium taurocholate]
- pKa [3]: 1.4

Compound: sodium deoxycholate
- pKa [3]: 6.58
- solubility ([3]; pH 7.4 of the skin): sparingly soluble
- effect on adipose tissue cell membranes [4]: non-specific rupture of adipose tissue cell membranes
